# Patent EP4682145A1, “BENZOHETEROCYCLIC COMPOUND, AND PREPARATION METHOD THEREFOR AND USE THEREOF” (Cascade Pharmaceuticals, Inc., priority 2023, dated 2024)
# Biological target: T1, human FFAR1 (GPR40) (Homo sapiens, UniProt O14842)
# T1 construct: Flag; expressed in transfected cells; host or cells: HEK293T
# Experiment: NFAT-RE-based reporter gene activity assay (Dual-Glo luciferase) for GPR40 agonistic activity in co-transfected HEK293T cells
# Assay type: cell-based
# Settings: 4-hour treatment
# Procedure, shortened: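 Agonism read as NFAT-RE-driven firefly luciferase over Renilla control (Dual-Glo) after 4 h compound exposure, top concentration 1 µM, 10 half-log steps.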
# T1 sequence (O14842 whole entry): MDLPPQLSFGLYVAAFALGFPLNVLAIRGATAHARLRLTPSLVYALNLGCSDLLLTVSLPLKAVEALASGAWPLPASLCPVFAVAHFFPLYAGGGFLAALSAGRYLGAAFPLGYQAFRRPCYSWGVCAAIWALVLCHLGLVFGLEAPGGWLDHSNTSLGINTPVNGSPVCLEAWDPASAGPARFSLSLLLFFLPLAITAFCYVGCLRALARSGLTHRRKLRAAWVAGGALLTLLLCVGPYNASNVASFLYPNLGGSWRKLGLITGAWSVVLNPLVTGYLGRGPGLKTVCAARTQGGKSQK
row,Structure (SMILES),EC50 [nM]
1,COc1ccc(F)c(N2CCC(c3oc4cc(C(CC(=O)O)C5CC5)ccc4c3/C=C/C(C)(C)C)CC2)c1 (stereo not drawn) [Compound 366],10 to 100
2,COc1ccc(F)c(N2CCC(c3oc4cc([C@@H](CC(=O)O)C5CC5)ccc4c3/C=C/C(C)(C)C)CC2)c1 [Compound 367],≤ 10
3,COc1ccc(F)c(N2CCC(c3oc4cc(C(CC(=O)O)C5CC5)ccc4c3/C=C/C(C)(C)O)CC2)c1 (stereo not drawn) [Compound 368],100 to 500
4,COc1ccc(F)c(N2CCC(c3oc4cc([C@@H](CC(=O)O)C5CC5)ccc4c3/C=C/C(C)(C)O)CC2)c1 [Compound 369],100 to 500
5,COc1ccc(F)c(N2CCC(c3oc4cc(C(CC(=O)O)C5CC5)ccc4c3C=C(C)C)CC2)c1 (stereo not drawn) [Compound 370],100 to 500
6,COc1ccc(F)c(N2CCC(c3oc4cc(C(CC(=O)O)C5CC5)ccc4c3C/C=C/C(C)C)CC2)c1 (stereo not drawn) [Compound 371],100 to 500
7,COc1ccc(F)c(N2CCC(c3oc4cc([C@@H](CC(=O)O)C5CC5)ccc4c3CC=C(C)C)CC2)c1 [Compound 372],100 to 500
8,COc1ccc(F)c(N2CCC(c3oc4cc([C@@H](CC(=O)O)C5CC5)ccc4c3C/C=C/C3CC3)CC2)c1 [Compound 373],10 to 100
9,COc1cccc(N2CCC(c3oc4cc([C@@H](CC(=O)O)C5CC5)ccc4c3CC=C(C)C)CC2)c1 [Compound 374],10 to 100
10,COc1cccc(N2CCC(c3oc4cc([C@@H](CC(=O)O)C5CC5)ccc4c3C/C=C/C3CC3)CC2)c1 [Compound 375],100 to 500
11,CC(C)=CCc1c(C2CCN(c3ccc4c(c3)OCO4)CC2)oc2cc([C@@H](CC(=O)O)C3CC3)ccc12 [Compound 376],10 to 100
12,COc1cccc(N2CCC(c3oc4cc(C(CC(=O)O)C5CC5)ccc4c3C(=CCC(C)C)c3ccccc3)CC2)c1 (stereo not drawn) [Compound 377],10 to 100
13,COc1ccc(F)c(N2CCC(c3oc4cc(C(CC(=O)O)C5CC5)ccc4c3C3=CCCCC3)CC2)c1 (stereo not drawn) [Compound 379],100 to 500
14,COc1ccc(F)c(N2CCC(c3oc4cc(C(CC(=O)O)C5CC5)ccc4c3C3=CCC(C(C)(C)C)CC3)CC2)c1 (stereo not drawn) [Compound 380],> 500
15,COc1ccc(F)c(N2CCC(c3oc4cc(C(CC(=O)O)C5CC5)ccc4c3CC3=CCCC3)CC2)c1 (stereo not drawn) [Compound 383],100 to 500
16,CCCCC(C)c1c(C2CCN(c3cccc(OC)c3)CC2)oc2cc([C@@H](CC(=O)O)C3CC3)ccc12 (stereo partly drawn) [Compound 384],100 to 500
17,COc1cccc(N2CCC(c3oc4cc([C@@H](CC(=O)O)C5CC5)ccc4c3C(C)CCC(C)C)CC2)c1 (stereo partly drawn) [Compound 385],10 to 100
18,CCCCC(c1ccccc1)c1c(C2CCN(c3cccc(OC)c3)CC2)oc2cc([C@@H](CC(=O)O)C3CC3)ccc12 (stereo partly drawn) [Compound 386],10 to 100
19,COc1cccc(N2CCC(c3oc4cc([C@@H](CC(=O)O)C5CC5)ccc4c3C(CCC(C)C)c3ccccc3)CC2)c1 (stereo partly drawn) [Compound 387],10 to 100
20,COc1ccc(F)c(N2CCC(c3oc4cc(C(CC(=O)O)C5CC5)ccc4c3CCC(C)(C)C)CC2)c1 (stereo not drawn) [Compound 388],100 to 500
21,COc1ccc(F)c(N2CCC(c3oc4cc([C@@H](CC(=O)O)C5CC5)ccc4c3CCC(C)(C)C)CC2)c1 [Compound 389],100 to 500
22,COc1ccc(F)c(N2CCC(c3oc4cc(C(CC(=O)O)C5CC5)ccc4c3CCC(C)(C)O)CC2)c1 (stereo not drawn) [Compound 390],100 to 500
23,COc1ccc(F)c(N2CCC(c3oc4cc([C@@H](CC(=O)O)C5CC5)ccc4c3CCCC3CC3)CC2)c1 [Compound 391],100 to 500
24,COc1ccc(F)c(N2CCC(c3oc4cc(C(CC(=O)O)C5CC5)ccc4c3CCOC(C)C)CC2)c1 (stereo not drawn) [Compound 393],100 to 500

# Same assay, conditions: 4-hour treatment, class symbols
row,Structure (SMILES),Efficacy (%)
1,COc1ccc(F)c(N2CCC(c3oc4cc(C(CC(=O)O)C5CC5)ccc4c3/C=C/C(C)(C)C)CC2)c1 (stereo not drawn) [Compound 366],†† (150 ≥ Efficacy (%) > 100)
2,COc1ccc(F)c(N2CCC(c3oc4cc([C@@H](CC(=O)O)C5CC5)ccc4c3/C=C/C(C)(C)C)CC2)c1 [Compound 367],†† (150 ≥ Efficacy (%) > 100)
3,COc1ccc(F)c(N2CCC(c3oc4cc(C(CC(=O)O)C5CC5)ccc4c3/C=C/C(C)(C)O)CC2)c1 (stereo not drawn) [Compound 368],††† (Efficacy (%) > 150)
4,COc1ccc(F)c(N2CCC(c3oc4cc([C@@H](CC(=O)O)C5CC5)ccc4c3/C=C/C(C)(C)O)CC2)c1 [Compound 369],† (100 ≥ Efficacy (%) > 50)
5,COc1ccc(F)c(N2CCC(c3oc4cc(C(CC(=O)O)C5CC5)ccc4c3C=C(C)C)CC2)c1 (stereo not drawn) [Compound 370],†† (150 ≥ Efficacy (%) > 100)
6,COc1ccc(F)c(N2CCC(c3oc4cc(C(CC(=O)O)C5CC5)ccc4c3C/C=C/C(C)C)CC2)c1 (stereo not drawn) [Compound 371],†† (150 ≥ Efficacy (%) > 100)
7,COc1ccc(F)c(N2CCC(c3oc4cc([C@@H](CC(=O)O)C5CC5)ccc4c3CC=C(C)C)CC2)c1 [Compound 372],†† (150 ≥ Efficacy (%) > 100)
8,COc1ccc(F)c(N2CCC(c3oc4cc([C@@H](CC(=O)O)C5CC5)ccc4c3C/C=C/C3CC3)CC2)c1 [Compound 373],†† (150 ≥ Efficacy (%) > 100)
9,COc1cccc(N2CCC(c3oc4cc([C@@H](CC(=O)O)C5CC5)ccc4c3CC=C(C)C)CC2)c1 [Compound 374],†† (150 ≥ Efficacy (%) > 100)
10,COc1cccc(N2CCC(c3oc4cc([C@@H](CC(=O)O)C5CC5)ccc4c3C/C=C/C3CC3)CC2)c1 [Compound 375],†† (150 ≥ Efficacy (%) > 100)
11,CC(C)=CCc1c(C2CCN(c3ccc4c(c3)OCO4)CC2)oc2cc([C@@H](CC(=O)O)C3CC3)ccc12 [Compound 376],†† (150 ≥ Efficacy (%) > 100)
12,COc1cccc(N2CCC(c3oc4cc(C(CC(=O)O)C5CC5)ccc4c3C(=CCC(C)C)c3ccccc3)CC2)c1 (stereo not drawn) [Compound 377],†† (150 ≥ Efficacy (%) > 100)
13,COc1ccc(F)c(N2CCC(c3oc4cc(C(CC(=O)O)C5CC5)ccc4c3C3=CCCCC3)CC2)c1 (stereo not drawn) [Compound 379],†† (150 ≥ Efficacy (%) > 100)
14,COc1ccc(F)c(N2CCC(c3oc4cc(C(CC(=O)O)C5CC5)ccc4c3C3=CCC(C(C)(C)C)CC3)CC2)c1 (stereo not drawn) [Compound 380],†† (150 ≥ Efficacy (%) > 100)
15,COc1ccc(F)c(N2CCC(c3oc4cc(C(CC(=O)O)C5CC5)ccc4c3CC3=CCCC3)CC2)c1 (stereo not drawn) [Compound 383],††† (Efficacy (%) > 150)
16,CCCCC(C)c1c(C2CCN(c3cccc(OC)c3)CC2)oc2cc([C@@H](CC(=O)O)C3CC3)ccc12 (stereo partly drawn) [Compound 384],†† (150 ≥ Efficacy (%) > 100)
17,COc1cccc(N2CCC(c3oc4cc([C@@H](CC(=O)O)C5CC5)ccc4c3C(C)CCC(C)C)CC2)c1 (stereo partly drawn) [Compound 385],†† (150 ≥ Efficacy (%) > 100)
18,CCCCC(c1ccccc1)c1c(C2CCN(c3cccc(OC)c3)CC2)oc2cc([C@@H](CC(=O)O)C3CC3)ccc12 (stereo partly drawn) [Compound 386],†† (150 ≥ Efficacy (%) > 100)
19,COc1cccc(N2CCC(c3oc4cc([C@@H](CC(=O)O)C5CC5)ccc4c3C(CCC(C)C)c3ccccc3)CC2)c1 (stereo partly drawn) [Compound 387],†† (150 ≥ Efficacy (%) > 100)
20,COc1ccc(F)c(N2CCC(c3oc4cc(C(CC(=O)O)C5CC5)ccc4c3CCC(C)(C)C)CC2)c1 (stereo not drawn) [Compound 388],†† (150 ≥ Efficacy (%) > 100)
21,COc1ccc(F)c(N2CCC(c3oc4cc([C@@H](CC(=O)O)C5CC5)ccc4c3CCC(C)(C)C)CC2)c1 [Compound 389],†† (150 ≥ Efficacy (%) > 100)
22,COc1ccc(F)c(N2CCC(c3oc4cc(C(CC(=O)O)C5CC5)ccc4c3CCC(C)(C)O)CC2)c1 (stereo not drawn) [Compound 390],†† (150 ≥ Efficacy (%) > 100)
23,COc1ccc(F)c(N2CCC(c3oc4cc([C@@H](CC(=O)O)C5CC5)ccc4c3CCCC3CC3)CC2)c1 [Compound 391],†† (150 ≥ Efficacy (%) > 100)
24,COc1ccc(F)c(N2CCC(c3oc4cc(C(CC(=O)O)C5CC5)ccc4c3CCOC(C)C)CC2)c1 (stereo not drawn) [Compound 393],†† (150 ≥ Efficacy (%) > 100)
